# Patent US20260216238A1, “TETRATHIOMOLYBDIC ACID FOR USE IN TREATING COPPER METABOLISM-ASSOCIATED DISEASES OR DISORDERS (WILSON DISEASE)” (Alexion Pharmaceuticals, Inc., priority 2023, published 2026)
# Read-outs that look alike come from different tables or passages of the source.
# Key:
# [1] = system: participants with cirrhosis at baseline
# Text: Study 205 is registered with ClinicalTrials.gov, number NCT04422431, and incorporated by reference in its entirety.
# [2] = system: participants with WD; conditions: for Daily Net Copper Balance, Change from Baseline, Mean: Table 10; for Decrease from Baseline in Average Daily Net Copper Balance, Mean (SD): Table 13
# Description: Study 204 is registered with ClinicalTrials.gov, number NCT04573309, and is described in Example 1 of U.S. Provisional Patent Application No. 63/237,120, filed Aug. 25, 2021, and incorporated by reference herein. […] The participants remained on a Cu-controlled diet, and Cu and Mo balance were measured on all intake (i.e., investigational agent, food and fluids) and all output (urine and feces). The Cu and Mo concentration of each sample was determined by inductively coupled plasma mass spectrometry (ICP-MS). Copper and Mo content of all intake and output was calculated based on the volume or weight of intake and output and the concentration of representative samples.
# Collection periods for feces and urine varied in duration from 3 to 15 days to support assessment of both Cu and Mo balance before and at steady state for both 15 mg and 30 mg. Equilibration periods on Cu/Mo-controlled diets were a minimum of 48 hours. Copper balance was calculated as the mean daily Cu balance over each of the 4 collection periods. The interpretation of Cu balance was based on the criteria previously established when undertaking Cu balance studies with zinc treatment.
# These participants had all intake (food and drink) and output (urine and feces) collected from Day −4 through Day −1 (baseline), from Day 1 through Day 8, and Day 25 through Day 39.
# [3] = system: patients with Wilson disease (WD); format: in vivo
# Text: Adverse events were reported by the patient (or, when appropriate, by a caregiver, surrogate, or the patient's legally authorized representative). The Investigator and any qualified designees were responsible for detecting, documenting, and recording events that meet the definition of an AE or SAE and remain responsible for following up AEs that were serious, considered related to the study intervention or study procedures, or that caused the patient to discontinue the study.
# The safety analysis was performed on the Safety Analysis Set. This dataset includes all patients who received at least 1 dose of randomized treatment. Patients were summarized according to the treatment actually received.
# Acute worsening of neurologic symptoms typically within 6 months of start of therapy is a known complication associated with chelation therapy for WD. […] Neurologic AESI for Study 301 were considered as all AEs in the Medical Dictionary for Regulatory Activities (MedDRA) System Organ Class (SOC) “Nervous system disorders” or any other AE judged by the Investigator as an AESI.
# [4] = human, in vivo
# Text: Pharmacokinetics: Blood samples for PK analysis were collected to measure plasma total molybdenum and plasma ultrafiltrate (PUF) molybdenum.
# [5] = system: patients with WD; conditions: cited from earlier work
# [6] = Days 1-8 (Accumulation 15 mg/day)
# [7] = Days 25-28 (Steady State 15 mg/day)
# [8] = Days 31-35 (Accumulation 30 mg/day)
# [9] = Days 36-39 (Steady State 30 mg/day)
# [10] = Primary Evaluation Period, 48 Weeks
substance,measurement,setting,value
bis-choline tetrathiomolybdate [TTM],participants with cirrhosis at baseline who maintained liver function (albumin levels),[1]; in vivo,87%
same,cirrhotic participants whose albumin levels returned to the normal range,[1]; of the 13 who experienced changes in liver function,7 participants
same,"Daily Net Copper Balance, Change from Baseline, Median",[2]; [6],-0.4291 mg
same,"Daily Net Copper Balance, Value, Median",[2]; [6],0.6678 mg
same,"Increase from Baseline in Average Daily Fecal Copper Excretion, Mean",[2]; [6],0.3278 mg
same,"Increase from Baseline in Average Daily Urine Copper Excretion, Mean",[2]; [6],-0.0108 mg
same,"Daily Net Copper Balance, Value, Mean","[2]; Days 1-8 (Accumulation 15 mg/day), N=3",0.7654 mg
same,"Daily Net Copper Balance, Change from Baseline, Mean",[2]; [6],-0.4848 mg
same,"Decrease from Baseline in Average Daily Net Copper Balance, Mean (SD)",[2]; [6],−0.4848(0.119) mg
same,"Decrease from Baseline in Average Daily Net Copper Balance, Mean (SD)",[2]; Days 1-39,−0.448 (0.1469) mg
same,"Daily Net Copper Balance, Change from Baseline, Median",[2]; [7],-0.1459 mg
same,"Daily Net Copper Balance, Value, Mean",[2]; [7],0.7638 mg
same,"Daily Net Copper Balance, Value, Median",[2]; [7],1.1434 mg
same,"Increase from Baseline in Average Daily Fecal Copper Excretion, Mean",[2]; [7],0.4931 mg
same,"Increase from Baseline in Average Daily Urine Copper Excretion, Mean",[2]; [7],0.1042 mg
same,"Daily Net Copper Balance, Change from Baseline, Mean",[2]; [7],-0.4865 mg
same,"Decrease from Baseline in Average Daily Net Copper Balance, Mean (SD)",[2]; [7],−0.6381 (0.7673) mg
same,"Daily Net Copper Balance, Change from Baseline, Median",[2]; [8],-0.3707 mg
same,"Daily Net Copper Balance, Value, Mean",[2]; [8],0.8577 mg
same,"Daily Net Copper Balance, Value, Median",[2]; [8],0.8312 mg
same,"Increase from Baseline in Average Daily Fecal Copper Excretion, Mean",[2]; [8],0.3879 mg
same,"Increase from Baseline in Average Daily Urine Copper Excretion, Mean",[2]; [8],0.0744 mg
same,"Daily Net Copper Balance, Change from Baseline, Mean",[2]; [8],-0.3925 mg
same,"Decrease from Baseline in Average Daily Net Copper Balance, Mean (SD)",[2]; [8],−0.3925 (0.05781) mg
same,"Daily Net Copper Balance, Change from Baseline, Median",[2]; [9],-0.4225 mg
same,"Daily Net Copper Balance, Value, Mean",[2]; [9],0.8582 mg
same,"Daily Net Copper Balance, Value, Median",[2]; [9],0.7986 mg
same,"Increase from Baseline in Average Daily Fecal Copper Excretion, Mean",[2]; [9],0.0899 mg
same,"Increase from Baseline in Average Daily Urine Copper Excretion, Mean",[2]; [9],0.1042 mg
same,"Daily Net Copper Balance, Change from Baseline, Mean",[2]; [9],-0.3921 mg
same,"Decrease from Baseline in Average Daily Net Copper Balance, Mean (SD)",[2]; [9],−0.2765 (0.3138) mg
same,AEs in SOC Ear and labyrinth disorders,[3]; Primary Evaluation Period,5.1%
same,AEs in SOC Hepatobiliary disorders,[3]; Primary Evaluation Period,6.6%
same,AEs in SOC Investigations,[3]; Primary Evaluation Period,33.6%
same,AEs in SOC Psychiatric disorders,[3]; Primary Evaluation Period,19.0%
same,AEs in SOC Skin and subcutaneous tissue disorders,[3]; Primary Evaluation Period,21.9%
same,"incidence of SAEs, Nervous system disorders",[3]; Primary Evaluation Period,4.4%
same,incidence of headache,[3]; Primary Evaluation Period,8.0%
same,incidence of tremor,[3]; Primary Evaluation Period,7.3%
same,"participants with highest severity Grade 1 AEs, Nervous system disorders",[3]; Primary Evaluation Period,24.1%
same,"participants with highest severity Grade 2 AEs, Nervous system disorders",[3]; Primary Evaluation Period,13.9%
same,"Alanine aminotransferase increased AE, % participants",[3]; [10],14.6%
same,"Alanine aminotransferase increased AE, N participants",[3]; [10],20
same,"Aspartate aminotransferase increased AE, % participants",[3]; [10],2.9%
same,"Aspartate aminotransferase increased AE, N participants",[3]; [10],4
same,"Ear and labyrinth disorders (SOC) AE, % participants",[3]; [10],5.1%
same,"Ear and labyrinth disorders (SOC) AE, N participants",[3]; [10],7
same,"Fatigue AE, % participants",[3]; [10],9.5%
same,"Fatigue AE, N participants",[3]; [10],13
same,"Gamma-glutamyltransferase increased AE, % participants",[3]; [10],2.2%
same,"Gamma-glutamyltransferase increased AE, N participants",[3]; [10],3
same,"Hepatic enzyme increased AE, % participants",[3]; [10],2.2%
same,"Hepatic enzyme increased AE, N participants",[3]; [10],3
same,"Hepatobiliary disorders (SOC) AE, % participants",[3]; [10],6.6%
same,"Hepatobiliary disorders (SOC) AE, N participants",[3]; [10],9
same,"Investigations (SOC) AE, % participants",[3]; [10],33.6%
same,"Investigations (SOC) AE, N participants",[3]; [10],46
same,"Nervous system disorders (SOC) AE, % participants",[3]; [10],34.3%
same,"Nervous system disorders (SOC) AE, N participants",[3]; [10],47
same,"Neutrophil count decreased AE, % participants",[3]; [10],1.5%
same,"Neutrophil count decreased AE, N participants",[3]; [10],2
same,"Pruritus AE, % participants",[3]; [10],3.6%
same,"Pruritus AE, N participants",[3]; [10],5
same,"Psychiatric disorders (SOC) AE, % participants",[3]; [10],19.0%
same,"Psychiatric disorders (SOC) AE, N participants",[3]; [10],26
same,"Pyrexia AE, % participants",[3]; [10],5.8%
same,"Pyrexia AE, N participants",[3]; [10],8
same,"Rash AE, % participants",[3]; [10],6.6%
same,"Rash AE, N participants",[3]; [10],9
same,"Skin and subcutaneous tissue disorders (SOC) AE, % participants",[3]; [10],21.9%
same,"Skin and subcutaneous tissue disorders (SOC) AE, N participants",[3]; [10],30
same,incidence of AEs in SOC Nervous system disorders,[3]; [10],34.3%
same,patients with neurologic AEs,[3]; cohort 1 incomplete response or intolerant,31.8%
same,participants with neurologic AESI in SOC Psychiatric disorders,[3]; seven events in 5 participants,3.6%
same,"Daily Mean AUC(0-48 weeks) PUF Mo, Mean",[4],0.1 mmol/L
same,reduction of mean serum cNCCcorrected compared with baseline,"[5]; Study 201, Week 24, p<0.0001",72%
same,patients with reversible liver function test elevations,"[5]; human, in vivo",39%
